Patent US20060204443A1, “Methods for tumor treatment using dendrimer conjugates” (The Government of the USA as represented by the Secretary …, priority 2005, published 2006)
Entries after “also recorded” stand apart in the source; their conditions may differ.

Key:
[1] = test system: Draining Lymph Nodes (LNs) from the Normal Breast Tissue; test: Dynamic micro-MR mammo-lymphangiography after injection into normal mammary gland (Example 1); type: in vivo, mice; settings: athymic nu/nu mice, 0.15 μmol Gd into the mammary gland; GPDM imaged at 12, 24, 36 min, then PAMAM-G6
Description: Mice were anesthetized with 1.15 mg sodium pentobarbital (Dainabot, Osaka, Japan), and then injected with 0.15-0.24 μmol Gd/5-8 μL of the PAMAM-G6 contrast agent into normal mammary glands or mammary tissue surrounding a tumor (peritumorally). Dynamic micro-MR images were obtained using a 1.5-Tesla superconductive magnet unit (Signa LX, General Electric Medical System, Milwaukee, Wis.) with a birdcage type coil of 3 cm diameter fixed by a custom made coil holder. Single and double “breast coils” used for imaging breasts in humans are commercially available, for example, from GE Medical Systems (Milwaukee, Wis.) and are routinely available in outpatient MRI centers. The mice were wrapped with gauze to stabilize their body temperature and were placed at the center of the coils.
In order to evaluate the lymphatic drainage from the normal mammary gland of either Balb/c mice (n=5) or athymic nu/nu mice (n=5), 3D-fast spoiled gradient echo (3D-fastSPGR (efgre3d package; Signa Horizon, GE); repetition time/echo time 19.2/7.2 msec; inversion time 47 msec; 31.2 kHz, flip angle 30°, 4 excitations; 36 slice encoding steps; scan time 4 min 49 seconds) with chemical shift fat-suppression was used 6, 12, 18, 24, 30, 36, 42, and 48 min after injection of the contrast agent. The coronal images were reconstructed with 0.6-mm section thickness every 0.3-mm. The field of view was 8×4 cm and the size of the matrix was 512×256. The slice data were processed into 3D images using the maximum intensity projection (MIP) method with the same window and level (window 3500 and level 2100) (Advantage Windows, General Electric Medical System). After imaging, the mice were sacrificed by carbon dioxide inhalation.
Athymic nu/nu mice (n=4) were anesthetized and injected with 0.15 μmol Gd of GPDM into the mammary gland, and images were taken 12, 24, and 36 min after injection. Following these three images, these mice were subsequently injected with 0.15 μmol Gd of PAMAM-G6 contrast agent in the mammary gland, and images were taken at 12 and 24 min post-injection of the PAMAM-G6 contrast agent (at 48 and 60 min post-injection of GPDM).

[2] = test system: deep lymphatic system (lymph nodes, thoracic duct); test: Whole-body dynamic 3D-micro-MRL after intracutaneous injection, normal mice (Examples 2, 3); type: in vivo; settings: for Number of Mice in Which the Thoracic Duct was Visualized/Number of Mice Examined: Normal Mice, 0.1 μmolGd intracutaneously
Description: The mice were anesthetized with 1.15 mg sodium pentobarbital (Dainabot, Osaka, Japan) by intraperitoneal injection, and then injected intracutaneously with 0.1 μmolGd of PAMAM-G8, DAB-G5, PAMAM-G4, Gadomer-17, or GPDM into four middle phalanges in all four extremities. Dynamic micro-MR images were obtained using a 1.5-Tesla superconductive magnet unit (Signa LX, General Electric Medical System, Milwaukee, Wis.) with a round birdcage type coil of 3 cm diameter fixed by a custom-made coil holder. Four to eight female mice (7 weeks old, 18-21 g body weight) in each group were used and each contrast agent was prepared at least three separate times for these imaging studies. The mice were wrapped with gauze to stabilize their body temperature and were placed at the center of the coils.
A 3D-fast spoiled gradient echo (3D-fastSPGR (efgre3d package; Signa Horizon, GE); repetition time/echo time 28.5/7.9 msec; inversion time 65 msec; 31.2 kHz, flip angle 30°, four excitations; 40 slice-encoding steps; scan time 7 min 36 seconds) with chemical shift fat-suppression was used 10, 20, 30, and 45 min after injection of the contrast agents. The coronal images were reconstructed with 0.6-mm section thickness at every 0.3-mm. The field of view was 6×3 cm and the size of the matrix was 512×256. The intensities of the regions of interest (for example, a whole axillary lymph node, and the liver) were measured, and then the time-intensity curves analyzed. The data were expressed as the axillary lymph node-to-muscle and the axillary lymph node-to-liver ratios. The slice data were processed into 3D images using the MIP method with the same window and level (window 3500 and level 2300) (Advantage Windows, General Electric Medical System). Two board-certified radiologists separately read a set of stereo views of 3D-MRL for all studies, and estimated the visualization of the thoracic duct. After imaging, the mice were sacrificed by carbon dioxide inhalation.
In this example, the PAMAM-G8 contrast agent is compared to GPDM. PAMAM-G8 was prepared as described in Example 2, and GPDM was purchased (Schering AG, Berlin, Germany). Animal models, administration of the contrast agents, and 3D-micro-MRL were as described in Example 2.

[3] = test system: axillary lymph nodes and their lymphatic vessels; test: Dynamic 3D-MR lymphangiography, effect of contrast agent size (Example 4); type: in vivo, athymic nu/nu mice
Description: Mice were anesthetized with 1.15 mg sodium pentobarbital (Dainabot, Osaka, Japan) by intraperitoneal injection. Then 0.15 μmolGd/5 μL of all nano-size contrast agents or 0.45 μmolGd/5 μL of Gd-[DTPA]-dimeglumine were injected into normal mammary glands or mammary tissue surrounding a tumor. Dynamic MR images were obtained using a 1.5-Tesla superconductive magnet unit (Signa LX, General Electric Medical System, Milwaukee, Wis.) with a birdcage type coil of 3 cm diameter fixed by a custom-made coil holder. The mice were wrapped with gauze to conserve their body temperature and were placed at the center of the coils.
In order to evaluate the effect of contrast agent molecular size on the ability to visualize the lymphatics and lymph nodes of athymic nu/nu mice, thirty five non-tumor bearing nu/nu mice were divided into seven groups (n=5). The mice were evaluated with 3D-fast spoiled gradient echo (3D-fastSPGR (efgre3d package; Signa Horizon, GE); repetition time/echo time 19.2/7.2 msec; inversion time 47 msec; bandwidth 31.2 kHz, flip angle 30°, 4 excitations; 36 slice encoding steps; scan time 4 minutes 49 seconds) with chemical shift fat-suppression at 6, 12, 18, 24, 30, and 36 minutes post-injection of each contrast agent. The coronal images were reconstructed with 0.6-mm section thickness every 0.3-mm. The field of view was 8×4 cm and the size of the matrix was 512×256. The slice data were processed into 3D images using the maximum intensity projection (MIP) method with the same window and level (window 3500 and level 2100) (Advantage Windows, General Electric Medical System). The enhancement ratio was calculated by taking the average signal intensity in the axillary lymph node and dividing it by the signal intensity in the adjacent muscle.

[4] = test system: axillary lymph nodes and their lymphatic vessels; test: as above; type: in vivo, athymic nu/nu mice; settings: triple dose, 3 min post-injection (data not shown)
[5] = Tokumitsu et al. 2000; cited from earlier work
[6] = mouse, in vivo, listed as Gd-DTPA

SMILES: CNC[C@H](O)[C@@H](O)[C@H](O)[C@H](O)CO.CNC[C@H](O)[C@@H](O)[C@H](O)[C@H](O)CO.O=C([O-])CN(CCN(CC(=O)[O-])CC(=O)O)CCN(CC(=O)[O-])CC(=O)O.[Gd+3] [GPDM, gadopentetate dimeglumine, reference compound]
- Visualization of draining lymph nodes and lymphatic vessels (FIG. 5) [1]: not well visualized
- Image enhancement after 45 minutes ([2]; Example 2, FIG. 10B): Virtually no image enhancement
- Visualization of deep lymph nodes ([2]; Example 2, normal mice, 10-45 min after injection): did not allow most of the lymph nodes to be visualized even at early times
- Visualization of deep lymph nodes ([2]; Example 3, FIG. 15): not with GPDM
- Number of Mice in Which the Thoracic Duct was Visualized/Number of Mice Examined ([2]; 10 min): 2/5
- Number of Mice in Which the Thoracic Duct was Visualized/Number of Mice Examined ([2]; 20 min): 0/5
- Number of Mice in Which the Thoracic Duct was Visualized/Number of Mice Examined ([2]; 30 min): 0/5
- Number of Mice in Which the Thoracic Duct was Visualized/Number of Mice Examined ([2]; 45 min): 0/5
- Visualization of axillary lymph nodes and their lymphatic vessels ([3]; 6-36 minutes post-injection into mammary gland): failed to opacify either the lymph nodes or the lymphatic vessels
- Signal intensity of adjacent muscle in comparison to G6 and G8 [3, 6]: significantly higher than those measured with G6 and G8; also recorded: higher signal in the adjacent muscle
- Signal intensity within the axillary lymph nodes in comparison to G6 and G8 [3, 6]: lower signal intensities; also recorded: significantly lower signal
- Contrast between target lymph node and surrounding tissue [4]: did not help to achieve good enough contrast
- Clearance from the body [5]: clear too rapidly from the body
